Data as given in patent US8637510B2, “Morpholinothiazoles as alpha 7 positive allosteric modulators” (Janssen Pharmaceutica NV, priority 2009, dated 2014).

Columns and labels:
[1] = molecular target: T1, human alpha 7-wt nAChR-expressing GH4C1 cells (Homo sapiens, UniProt P36544); test: Patch-clamp current recording (whole-cell voltage-clamp, PAM type classification); type: cell-based; set-up: key: Type 0 compounds minimally change the effect size of the current elicited by 1 mM choline.; Type 1 compounds enhance the effect size of the current elicited by 1 mM choline but minimally alter the kinetics of the receptor.; Type 2 compounds enhance the effect size of the current elicited by 1 mM choline while reducing the rate and/or the extent of desensitization.; Type 3 compounds enhance the effect size of the current elicited by 1 mM choline. When tested at higher concentrations up to 10 μM they completely inhibit desensitization; Type 4 compounds allow for an initial desensitization of the receptor followed by a re-opening of the receptor during agonist application; conditions: 1 mM choline
T1 construct: expressed in transfected cells
Description: The compounds of the present invention are classified as type 1-4, based on qualitative kinetic properties, as determined by whole-cell voltage-clamp recordings. This classification is based on the effect of an alpha 7 PAM compound, as described hereinbefore, on the signal elicited by an agonist application. In particular, said agonist is choline at a concentration of 1 mM. In a preferred experimental setting, said alpha 7 PAM compound and choline are simultaneously applied to the cell, as described hereinafter. Desensitization is defined as the closure of the receptor upon activation during the application of the agonist in whole-cell voltage-clamp electrophysiology measurements seen as the reduction of the […] current after initial activation by the agonist.
The definition of the PAM types 1-4 is described hereinafter: • Type 0 compounds minimally change the effect size of the current elicited by 1 mM choline. • Type 1 compounds enhance the effect size of the current elicited by 1 mM choline but minimally alter the kinetics of the receptor. In particular, the rate and the extent of desensitization and of deactivation of the receptor elicited by the agonist is not affected. The compound-modulated response to 1 mM choline, therefore, is close to a linear scaling of the 1 mM choline response in absence of the alpha 7 PAM compound. • Type 2 compounds enhance the effect size of the current elicited by 1 mM choline while reducing the rate and/or the extent of desensitization. Deactivation of the receptor is generally unaffected. • Type 3 compounds enhance the effect size of the current elicited by 1 mM choline. […] Deactivation of the receptor may be slowed down • Type 4 compounds allow for an initial desensitization of the receptor followed by a re-opening of the receptor during agonist application. At low-potency concentrations of the alpha 7 PAM compound, the agonist-induced activation, which is followed by desensitization, can still be separated from the compound-induced re-opening as an initial inward current-maximum. At higher potency concentrations of the alpha 7 PAM compound, the re-opening occurs faster than the closure due to desensitization so that the initial current-maximum disappears.
A compound was considered to have interesting PAM-like activity when the potentiation of the peak current was at least 200% compared to the control choline response (=100%). Such compounds are classified as belonging to a particular PAM type in the Experimental Part. Compounds not meeting the condition are not classified as belonging to a particular PAM-type.
The compounds also have a potentiating effect on the response to choline when measured by whole-cell patch clamp electrophysiology in GH4C1 cells stably over-expressing the human wild-type alpha 7 receptor.
Patch-clamp recording from mammalian cells has provided a powerful means of assessing the function of membrane-bound proteins thought to be subunits of ligand-gated ion channels. Activation of such proteins by endogenous or exogenous ligands cause opening of a pore associated with the receptor through which ions flow down their electrochemical gradient. In the case of the human alpha 7-wt nAChR-expressing GH4C1 recombinant cell line the preferential permeability to calcium of this receptor means that calcium flows into the cell upon activation by ACh, choline and other nicotinic ligands giving rise to a calcium current. Since this receptor rapidly desensitizes in the presence of agonist it is important that an application system is used which is capable of very rapid switching of solutions (<100 ms) to prevent partial or full desensitisation of receptor responses coincident with the time of agonist application. Consequently, a second convenient technique to assess the enhancement of nicotinic efficacy is a patch-clamp recording from human alpha 7-wt nAChR-expressing GH4C1 cells coupled with a rapid-application system. […]

[2] = molecular target: T2, human alpha 7-wt nAChR (Homo sapiens, UniProt P36544); test: Ca2+ flux imaging (FDSS) (Protocol B); type: cell-based; conditions: for EC50: potentiation of 100 μM choline, compounds 0.01 μM to 30 μM, read-out: a7-PAM-G_[33]_pEC50 pEC50 (converted); for Emax: read-out: a7-PAM-G_[33]_Eff_Curve_FI % Efficacy
T2 construct: expressed in transfected cells
Outline: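 PAM activity was measured as FDSS calcium fluorescence in α7-wt nAChR cells loaded with 2 μM Fluo-4AM, with compounds at 0.01–30 μM added alongside or 10 min ahead of sub-maximal 100 μM choline. Peak responses were normalised to choline-only efficacy, and EC50 was taken at half-maximal effect.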

[3] = efficacy of 100 μM choline defined as 100% in the absence of a PAM

T2 sequence (P36544 23-502): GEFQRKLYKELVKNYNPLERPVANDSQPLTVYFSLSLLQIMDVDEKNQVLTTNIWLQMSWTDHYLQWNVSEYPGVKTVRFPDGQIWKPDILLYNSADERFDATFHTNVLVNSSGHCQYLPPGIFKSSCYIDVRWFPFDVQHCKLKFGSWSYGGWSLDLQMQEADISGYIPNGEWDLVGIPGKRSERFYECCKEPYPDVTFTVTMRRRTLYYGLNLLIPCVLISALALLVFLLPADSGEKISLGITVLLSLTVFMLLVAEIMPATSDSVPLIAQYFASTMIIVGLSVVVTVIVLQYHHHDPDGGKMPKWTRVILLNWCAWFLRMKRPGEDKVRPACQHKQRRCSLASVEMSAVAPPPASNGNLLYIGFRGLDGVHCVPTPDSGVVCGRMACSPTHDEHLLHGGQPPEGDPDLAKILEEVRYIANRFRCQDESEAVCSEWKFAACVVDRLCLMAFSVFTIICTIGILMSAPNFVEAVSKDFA
T1 sequence (P36544 23-502): as above

| SMILES | PAM_Type PAM type [1] | EC50 [2] | melting point | a7-PAM-G_[33]_Eff_Curve_FI % Efficacy [2, 3] | Emax [2, 3] |
| --- | --- | --- | --- | --- | --- |
| Cc1cc(-c2sc(N3CCOC(C)C3)nc2CNC(=O)C(C)C)cc(C)n1 (single isomer, unassigned) [Compound 71, N-[[5-(2,6-dimethyl-4-pyridinyl)-2-[(2S*)-2-methyl-4-morpholinyl]-4-thiazolyl]methyl]-2-methyl-propanamide] | 2 | 0.692 µM | 188 °C | – | – |
| Cc1cc(-c2sc(N3CCOC(C)C3)nc2CNC(=O)CC2CC2)cc(C)n1 (single isomer, unassigned) [Compound 75, N-[[5-(2,6-dimethyl-4-pyridinyl)-2-[(2R*)-2-methyl-4-morpholinyl]-4-thiazolyl]methyl]-cyclopropaneacetamide] | 2 | 1.02 µM | 170 °C | 819% | – |
| Cc1cc(-c2sc(N3C[C@@H](C)O[C@@H](C)C3)nc2CNC(=O)c2c(C)noc2C)cc(C)n1 [Compound 25, N-[[2-[(2R,6S)-2,6-dimethyl-4-morpholinyl]-5-(2,6-dimethyl-4-pyridinyl)-4-thiazolyl]methyl]-3,5-dimethyl-4-isoxazolecarboxamide] | 0 | 0.813 µM | – | – | 235% |
| Cc1cc(-c2sc(N3C[C@@H](C)O[C@@H](C)C3)nc2CNC(=O)c2cccc(F)c2F)cc(C)n1 [Compound 32, N-[[2-[(2R,6S)-2,6-dimethyl-4-morpholinyl]-5-(2,6-dimethyl-4-pyridinyl)-4-thiazolyl]methyl]-2,3-difluoro-benzamide] | 1 | 0.38 µM | – | – | 422% |
| Cc1cc(-c2sc(N3C[C@@H](C)O[C@@H](C)C3)nc2CNC(=O)C(C)C)cc(C)n1 [Compound 40, N-[[2-[(2R,6S)-2,6-dimethyl-4-morpholinyl]-5-(2,6-dimethyl-4-pyridinyl)-4-thiazolyl]methyl]-2-methyl-propanamide] | 2 | 0.1 µM | – | – | 965% |
| Cc1cc(-c2sc(N3C[C@@H](C)O[C@@H](C)C3)nc2CNC(=O)C2CC2)cc(C)n1 [Compound 48, N-[[2-[(2R,6S)-2,6-dimethyl-4-morpholinyl]-5-(2,6-dimethyl-4-pyridinyl)-4-thiazolyl]methyl]-cyclopropanecarboxamide] | 2 | 0.661 µM | – | – | – |
| COc1cc(-c2sc(N3C[C@@H](C)O[C@@H](C)C3)nc2CNC(=O)c2conc2C)cc(C)n1 [Compound 81, N-[[2-[(2R,6S)-2,6-dimethyl-4-morpholinyl]-5-(2-methoxy-6-methyl-4-pyridinyl)-4-thiazolyl]methyl]-3-methyl-4-isoxazolecarboxamide] | 2 | 0.295 µM | – | – | 384% |
| Cc1cc(-c2sc(N3C[C@@H](C)O[C@@H](C)C3)nc2CNC(=O)C2CCC2)ccn1 [Compound 89, N-[[2-[(2R,6S)-2,6-dimethyl-4-morpholinyl]-5-(2-methyl-4-pyridinyl)-4-thiazolyl]methyl]-cyclobutanecarboxamide] | 2 | 0.631 µM | – | – | 528% |
| Cc1cc(-c2sc(N3C[C@@H](C)O[C@@H](C)C3)nc2CNC(=O)c2nc(C)oc2C)cc(C)n1 [Compound 134, N-[[2-[(2R,6S)-2,6-dimethyl-4-morpholinyl]-5-(2,6-dimethyl-4-pyridinyl)-4-thiazolyl]methyl]-2,5-dimethyl-4-oxazolecarboxamide] | 0 | 2.4 µM | – | – | 464% |
| Cc1cc(-c2sc(N3C[C@@H](C)O[C@@H](C)C3)nc2CNC(=O)c2ccc(S(N)(=O)=O)cc2)cc(C)n1 [Compound 144, 4-(aminosulfonyl)-N-[[2-[(2R,6S)-2,6-dimethyl-4-morpholinyl]-5-(2,6-dimethyl-4-pyridinyl)-4-thiazolyl]methyl]-benzamide] | 2 | 2.14 µM | – | – | – |
| Cc1cc(-c2sc(N3C[C@@H](C)O[C@@H](C)C3)nc2CNC(=O)c2oncc2C)cc(C)n1 [Compound 148, N-[[2-[(2R,6S)-2,6-dimethyl-4-morpholinyl]-5-(2,6-dimethyl-4-pyridinyl)-4-thiazolyl]methyl]-4-methyl-5-isoxazolecarboxamide] | 0 | 1.23 µM | – | – | – |
| Cc1cc(-c2sc(N3C[C@@H](C)O[C@@H](C)C3)nc2CNC(=O)C2CC(=O)OC2(C)C)cc(C)n1 (stereo partly drawn) [Compound 154, N-[[2-[(2R,6S)-2,6-dimethyl-4-morpholinyl]-5-(2,6-dimethyl-4-pyridinyl)-4-thiazolyl]methyl]tetrahydro-2,2-dimethyl-5-oxo-3-furancarboxamide] | 1 | 0.871 µM | – | – | 791% |
| Cc1cc(-c2sc(N3C[C@@H](C)O[C@@H](C)C3)nc2CNC(=O)Cc2c(C)noc2C)cc(C)n1 [Compound 166, N-[[2-[(2R,6S)-2,6-dimethyl-4-morpholinyl]-5-(2,6-dimethyl-4-pyridinyl)-4-thiazolyl]methyl]-3,5-dimethyl-4-isoxazoleacetamide] | 1 | 0.525 µM | – | – | – |
| Cc1cc(-c2sc(N3C[C@@H](C)O[C@@H](C)C3)nc2CNC(=O)CC(F)(F)F)cc(C)n1 [Compound 168, N-[[2-[(2R,6S)-2,6-dimethyl-4-morpholinyl]-5-(2,6-dimethyl-4-pyridinyl)-4-thiazolyl]methyl]-3,3,3-trifluoro-propanamide] | 1 | 0.0692 µM | – | – | 924% |
| Cc1cc(-c2sc(N3C[C@@H](C)O[C@@H](C)C3)nc2CNC(=O)COCC(F)(F)F)cc(C)n1 [Compound 175, N-[[2-[(2R,6S)-2,6-dimethyl-4-morpholinyl]-5-(2,6-dimethyl-4-pyridinyl)-4-thiazolyl]methyl]-2-(2,2,2-trifluoroethoxy)-acetamide] | 1 | 0.525 µM | – | – | – |
| Cc1cc(-c2sc(N3C[C@@H](C)O[C@@H](C)C3)nc2CNC(=O)C(C)C2CC2)cc(C)n1 (stereo partly drawn) [Compound 179, N-[[2-[(2R,6S)-2,6-dimethyl-4-morpholinyl]-5-(2,6-dimethyl-4-pyridinyl)-4-thiazolyl]methyl]-α-methyl-cyclopropaneacetamide] | 2 | 0.0977 µM | – | – | 707% |
| Cc1cc(-c2sc(N3CCOC(C(F)(F)F)C3)nc2CNC(=O)c2ccc(F)cc2C)cc(C)n1 (stereo not drawn) [Compound 193, N-[[5-(2,6-dimethyl-4-pyridinyl)-2-[2-(trifluoromethyl)-4-morpholinyl]-4-thiazolyl]methyl]-4-fluoro-2-methyl-benzamide] | 4 | 0.0209 µM | – | – | – |
| Cc1cc(F)ccc1C(=O)NCc1nc(N2C[C@@H](C)O[C@@H](C)C2)sc1-c1ccnc(C(F)(F)F)c1 [Compound 198, N-[[2-[(2R,6S)-2,6-dimethyl-4-morpholinyl]-5-[2-(trifluoromethyl)-4-pyridinyl]-4-thiazolyl]methyl]-4-fluoro-2-methyl-benzamide] | 1 | 0.148 µM | – | – | – |
